Earlier results as cited in article PMC8679620, “Receptor-Targeted Photodynamic Therapy of Glucagon-Like Peptide 1 Receptor–Positive Lesions” (Journal of Nuclear Medicine, 2020).

Conditions: at 689 nm; ref [12],[17]
Description: Exendin-4-IRDye700DX was supplied by piCHEM. IRDye700DX NHS ester was obtained from LI-COR Biosciences.

extinction coefficient: 210000 M⁻¹ cm⁻¹
Compound: C[Si](C)(CCC[N+](CCCS(=O)(=O)[O-])(CCCS(=O)(=O)[O-])CCCS(=O)(=O)[O-])O[Si]1(O[Si](C)(C)CCC[N+](CCCS(=O)(=O)[O-])(CCCS(=O)(=O)[O-])CCCS(=O)(=O)[O-])n2c3c4ccccc4c2N=C2N=C(N=c4c5ccccc5c(n41)=NC1=NC(=N3)c3ccccc31)c1cccc(OCCCOC(=O)NCCCCCC(=O)ON3C(=O)CCC3=O)c12.[Na+].[Na+].[Na+].[Na+] (stereo not shown) [IRDye700DX]
